Reference: US20260256872A1, “PEPTIDE FOR TREATING DEMYELINATING DISEASES AND USE THEREOF” (KINE SCIENCES Co., Ltd., priority 2023, published 2026)

Tests used:
[1] = tested on: chronic inflammatory demyelinating polyneuropathy (CIDP) animal model; test: Clinical score in CIDP animal model (EAN P0(180-199)); assay type: in vivo, Lewis rats
Protocol: Female Lewis rats (7 weeks old) were obtained and acclimatized for one week. Thereafter, solution A was prepared by dissolving peripheral myelin PO protein (180-199) in 0.9% saline at a concentration of […], and solution B was prepared by dissolving Mycobacterium tuberculosis in Freund's incomplete adjuvant at a concentration of […]. A sterile 50 ml tube was placed in an ice box, and solutions A and B were mixed at a ratio of 1:1. The mixture was then homogenized using a homogenizer for 15 minutes to prepare an emulsion. The prepared emulsion was loaded into a 1 ml syringe, the syringe needle was replaced with a 25G needle, and the syringe was stored in an ice box containing ice until use. The emulsion (200 μL) was subcutaneously (S.C.) injected into the tail of the Lewis rats to induce the disease. […]
In order to examine the progression of CIDP following administration of KINE-101, the severity of CIDP over time after administration of KINE-101 to the CIDP animal model was evaluated and measured using a clinical score.
Specifically, during administration of KINE-101 by the method described in Example <2-1>, the symptoms were evaluated on a scale of 0 to 5 according to the criteria shown in Table 3 below. […] The severity of CIDP was quantified by calculating the average value of the results evaluated for each individual.

[2] = tested on: chronic inflammatory demyelinating polyneuropathy (CIDP) animal model; test: Demyelination in peripheral nerve tissues (TEM), CIDP animal model; assay type: in vivo, Lewis rats; conditions: KINE-101 50 mg/kg I.V.; hind limb peripheral nerve
Protocol: Female Lewis rats (7 weeks old) were obtained and acclimatized for one week. Thereafter, solution A was prepared by dissolving peripheral myelin PO protein (180-199) in 0.9% saline at a concentration of […], and solution B was prepared by dissolving Mycobacterium tuberculosis in Freund's incomplete adjuvant at a concentration of […]. A sterile 50 ml tube was placed in an ice box, and solutions A and B were mixed at a ratio of 1:1. The mixture was then homogenized using a homogenizer for 15 minutes to prepare an emulsion. The prepared emulsion was loaded into a 1 ml syringe, the syringe needle was replaced with a 25G needle, and the syringe was stored in an ice box containing ice until use. The emulsion (200 μL) was subcutaneously (S.C.) injected into the tail of the Lewis rats to induce the disease. […] From the day following disease induction, KINE-101 dissolved in DPBS was intravenously (I.V.) administered three times per week at doses of 1, 5, 25, and 50 mg/kg.
Tissue cross-sections were then observed using a transmission electron microscope (TEM) to evaluate the degree of myelin loss. In addition, comparisons were made with the normal group (Normal) and the CIDP-induced group (EAN PO (180-199)).

CIDP animal model [3] = test: Clinical score in CIDP animal model (S-palmP0(180-199)), KINE-101 vs IVIg; assay type: in vivo, Lewis rats
[4] = Body weight change in CIDP animal model (S-palmP0(180-199)); assay type: in vivo, Lewis rats
Protocol: (§1) Specifically, male Lewis rats (7 weeks old) were obtained and acclimatized for one week. Thereafter, solution A was prepared by dissolving s-palm PO, in which palmitic acid is conjugated to cysteine at the 181st amino acid of peripheral myelin PO protein described in <Example 2>, in saline at a concentration of 2 mg/mL. Solution B was prepared by dissolving Mycobacterium tuberculosis in Freund's adjuvant at a concentration of 5 mg/mL. A sterile 25 mL tube was placed in an ice box, and solutions A and B were mixed at a ratio of 1:1 and homogenized for 15 minutes using a homogenizer to prepare an emulsion. The emulsion (200 μL) was then administered by subcutaneous injection at the base of the rat tail to induce the disease. […] The KINE-101 administration groups received KINE-101 dissolved in DPBS at doses of 6.25, 12.5, 25, and 37.5 mg/kg by intravenous injection (I.V.) three times per week for 15 days, starting the day after disease induction. The IVIg administration group received IVIg at a dose of 400 mg/kg once daily for 5 days starting the day after disease induction. The experiment was terminated on day 15 after disease induction.
Specifically, body weight was measured during administration of KINE-101 or IVIg by the method described in Example <3-1>, and the change in body weight was calculated relative to the body weight before disease induction (Day 0).

CIDP animal model [5] = test: Nerve conduction studies (MNCV, CMAP, SNCV, SNAP) in CIDP animal model; assay type: in vivo, Lewis rats
Protocol: as §1
(§2) Specifically, KINE-101 or IVIg was administered by the method described in Example <3-1>, and after completion of the experiment, the animals were anesthetized with 1.5% isoflurane and examined. The fur from the distal region of the hind limb to the upper region was removed, and nerve conduction studies for measuring motor and sensory nerves were performed using a Nicolet VikingQuest device as the electrophysiological examination instrument. For the nerve conduction study, a needle electrode was placed on the motor nerve or sensory nerve, and a reference electrode was placed on the gastrocnemius muscle. The stimulating cathode was positioned in the middle of the posterior thigh near the recording electrode, and stimulation was applied at both distal and proximal sites. Motor nerve conduction velocity (MNCV) and compound muscle action potential (CMAP) of the motor nerve, as well as sensory nerve conduction velocity (SNCV) and sensory nerve action potential (SNAP) of the sensory nerve, were measured.

[6] = tested on: acquired peripheral nerve injury animal model; test: Nerve conduction studies in acquired peripheral nerve injury animal model; assay type: in vivo, C57BL/6 mice
Protocol: as §2
(§3) Specifically, a uniform nerve injury model can be obtained by damaging the nerve emerging from the spinal cord at a predetermined intensity for a certain period of time, and since both the intensity and duration can be controlled, it is possible to establish a nerve injury model that persists for a desired period. For the disease induction groups, the boundary region between the gluteal muscle and the femoral muscle of the mouse was incised to expose the sciatic nerve. The nerve was then grasped and injured for a predetermined period using a surgical tool (MacJam) at one of three intensities (stages 1, 2, or 3; stage 3 for 3 seconds was used as the reference), after which the incision was sutured to establish an acquired peripheral nerve injury animal model. From the day following disease induction, KINE-101 dissolved in DPBS was administered intravenously (I.V.) at doses of 10, 50, and 100 mg/kg three times per week for a total of four weeks.
Specifically, mice were anesthetized with 1.5% isoflurane at weeks 0, 3, and 6 after administration of KINE-101 according to the method described in Example <4-1>, and MNCV, CMAP, SNCV, and SNAP were measured by the same method described in Example <3-4> to determine whether motor nerves and sensory nerves were damaged.

[7] = tested on: acquired peripheral nerve injury animal model; test: Rotarod test in acquired peripheral nerve injury animal model; assay type: in vivo, C57BL/6 mice; conditions: weeks 3 and 6; all KINE-101-treated groups (10, 50, 100 mg/kg); vs Injury Ctr
Text: as §3, with “From the day following disease induction, KINE-101 dissolved in DPBS was administered intravenously (I.V.) at doses of 10, 50, and 100 mg/kg three times per week for a total of four weeks.” left out
Demyelinating diseases are known to be accompanied by symptoms such as muscle weakness and impaired balance. […] Specifically, the phenotype of the experimental animals was analyzed using rotarod, grip strength, and tail suspension tests. […] Using a rotarod apparatus (ROTA ROD, LE8205, Panlab), the time during which the animal remained on the rotating rod was measured for 2 minutes and 30 seconds at a fixed speed of 8 rpm. For each evaluation, three trials were conducted, and the maximum duration among the trials was analyzed.

[8] = tested on: acquired peripheral nerve injury animal model; test: Histopathological examination of nerve tissues (toluidine blue, TEM), acquired peripheral nerve injury animal model; assay type: in vivo, C57BL/6 mice; conditions: for myelinated axons and unmyelinated fibers: vs acquired peripheral nerve injury group
Text: as §3
Specifically, KINE-101 was administered to the acquired peripheral nerve injury animal model for four weeks according to the method described in Example <4-1>, and the experimental animals were sacrificed six weeks after the start of administration. Thereafter, peripheral nerve tissues of the hind limbs were isolated and fixed in a 4% paraformaldehyde solution containing 2.5% glutaraldehyde. After ethanol dehydration, the tissues were embedded in epoxy resin and semi-thin sections (1 μm) were prepared. The semi-thin sections were stained with toluidine blue for 5-10 seconds and observed under a light microscope. In addition, ultra-thin sections (65 nm) were prepared, and tissue cross-sections were observed using a transmission electron microscope (TEM) to examine abnormalities of myelin (demyelination, dysmyelination, and hypermyelination).

Treg cells = test: Treg cell proportion and activation in lymph nodes at nerve injury site (flow cytometry); assay type: in vivo, C57BL/6 mice
Text: as §3
Specifically, KINE-101 was administered to the acquired peripheral nerve injury animal model for four weeks according to the method described in Example <4-1>, and the experimental animals were sacrificed six weeks after the start of administration. Thereafter, immune cells were isolated from the lymph nodes at the nerve injury site of the experimental animals. The isolated immune cells were subjected to fluorescent staining for CD4 and Foxp3 proteins, and the proportion of Treg cells among CD4 T cells was determined by flow cytometry. In addition, fluorescent staining for the CTLA4 protein, which is an activation marker of Treg cells, was performed, and the level of CTLA4 expression in Treg cells was compared by flow cytometric analysis to evaluate the degree of activation.

[9] = all KINE-101-treated groups (6.25-37.5 mg/kg I.V.), after day 15
[10] = all KINE-101-treated groups, IVIg 400 mg/kg
[11] = week 3, KINE-101 10 mg/kg I.V. three times per week for four weeks
[12] = week 3, KINE-101 50 mg/kg I.V. three times per week for four weeks
[13] = week 6, KINE-101 50 mg/kg I.V. three times per week for four weeks
[14] = weeks 3 and 6, KINE-101-treated groups (10, 50, 100 mg/kg)

With “PSPPSPPSP [KINE-101, trimeric polymer prepared using a PSP fragment (PSP monomer)]” the clinical score ([1]; KINE-101 50 mg/kg I.V. three times per week) was “lowest clinical score”, the “clinical score (CIDP symptoms)” value ([1]; all KINE-101-treated groups (1, 5, 25, 50 mg/kg I.V. three times per week), vs CIDP-induced group) was “alleviation of symptoms after day 15” and the “demyelination (degree of myelin loss, TEM)” value [2] was “demyelination was suppressed similarly to that observed in the normal group”. The clinical score (CIDP animal model [3]; KINE-101 25 mg/kg I.V. three times per week) was “lowest clinical score”, the clinical score (CIDP animal model [3]; all KINE-101-treated groups (6.25 mg/kg to 37.5 mg/kg I.V. three times per week), day 15 after disease induction) was “lower clinical scores on day 15 after disease induction compared with the negative control group” and the “body weight improvement effect” value ([4]; KINE-101 12.5 mg/kg I.V.) was “most pronounced body weight improvement effect”. For the same sequence, the “body weight gain vs negative control group” value ([4]; KINE-101-treated groups (6.25-37.5 mg/kg I.V.)) was “greater body weight gain compared with the negative control group”, the “body weight vs before disease induction (Day 0)” value ([4]; KINE-101-treated groups, day 15 after disease induction) was “maintained significantly higher body weight than that before disease induction” and the “MNCV and CMAP” value (CIDP animal model [5]; KINE-101 12.5 mg/kg I.V.) was “most pronounced effect”. The “SNCV and SNAP” value (CIDP animal model [5]; KINE-101 12.5 mg/kg I.V.) was “most pronounced effect”, the “compound muscle action potential (CMAP)” value (CIDP animal model [5]; [9]) was “higher MNCV and CMAP values compared with the negative control group” and the “motor nerve conduction velocity (MNCV)” value (CIDP animal model [5]; [9]) was “higher MNCV and CMAP values compared with the negative control group”. The “sensory nerve action potential (SNAP)” value (CIDP animal model [5]; [9]) was “higher SNCV and SNAP values compared with the negative control group”, the “sensory nerve conduction velocity (SNCV)” value (CIDP animal model [5]; [9]) was “higher SNCV and SNAP values compared with the negative control group” and the “MNCV and CMAP vs IVIg-treated group” value (CIDP animal model [5]; [10]) was “effects similar to or superior to those of the IVIg-treated group”. The “SNCV and SNAP vs IVIg-treated group” value (CIDP animal model [5]; [10]) was “effects similar to those of the IVIg-treated group”, the CMAP [6, 11] was 11.0±2.3 mV and the SNCV [6, 11] was 27.7±2.8 m/s. For the same sequence, the MNCV [6, 12] was 46.7±7.4 m/s, the SNAP [6, 12] was 11.2±3.1 μV and the SNCV [6, 12] was 27.6±2.2 m/s. For the same sequence, the SNCV ([6]; week 3, KINE-101 100 mg/kg I.V. three times per week for four weeks) was 28.6±3.7 m/s, the CMAP [6, 13] was 32.9±4.0 mV and the MNCV [6, 13] was 63.9±7.6 m/s. The SNAP [6, 13] was 12.3±2.9 μV, the SNCV [6, 13] was 27.9±3.1 m/s and the MNCV ([6]; week 6, KINE-101 100 mg/kg I.V. three times per week for four weeks) was 59.0±4.5 m/s. The MNCV ([6]; week 6, KINE-101-treated groups (10, 50, 100 mg/kg)) was “increased”, the CMAP [6, 14] was “increased compared with those in the acquired peripheral nerve injury group” and the SNAP [6, 14] was “increased compared with those in the acquired peripheral nerve injury group”. For the same sequence, the “muscle strength and balance (rotarod)” value [7] was “improved muscle strength and balance”, the “myelinated axons and unmyelinated fibers” value ([8]; KINE-101 50 mg/kg) was “marked increase in myelinated axons and a decrease in unmyelinated fibers” and the “myelinated axons and unmyelinated fibers” value ([8]; KINE-101 100 mg/kg) was “marked increase in myelinated axons and a decrease in unmyelinated fibers”. For the same sequence, the myelination ([8]; KINE-101-treated groups (10, 50, 100 mg/kg), six weeks after start of administration, vs Injury Ctr) was “improved myelination”, the “number of large myelinated fibers and small unmyelinated fibers” value ([8]; KINE-101-treated groups, six weeks after start of administration) was “an increase in the number of large myelinated fibers and a decrease in the number of small unmyelinated fibers” and the “CTLA4 expression in Treg cells (activation marker)” value (Treg cells; KINE-101 50 mg/kg) was “increased to a statistically significant level”. For the same sequence, the “proportion of Treg cells among CD4 T cells in lymph nodes at nerve injury site” value (Treg cells; KINE-101 50 mg/kg) was “increased to a statistically significant level”, the “CTLA4 expression in Treg cells (activation marker)” value (Treg cells; KINE-101-treated groups (10, 50, 100 mg/kg)) was “increased” and the “proportion of Treg cells among CD4 T cells in lymph nodes at nerve injury site” value (Treg cells; KINE-101-treated groups (10, 50, 100 mg/kg), six weeks after start of administration) was “increased”.
